Reference: publication PMC4604124, “In Vitro Characterization of the Pharmacological Properties of the Anti-Cancer Chelator, Bp4eT, and Its Phase I Metabolites” (PLoS ONE, 2015)
Values joined by “and” are separate entries in the source; they are usually repeats but may differ in a detail not shown here. Identical values can stand only once.

Experiments:
[1] = tested on: MCF-7 human breast adenocarcinoma cells; test: MTT cytotoxicity assay, MCF-7 cells; assay type: cell-based; conditions: MCF-7, 5 000 b/j, single experiment (date)
Experimental: For cytotoxicity experiments, cancer cells were seeded at a density of 5,000 (MCF-7), 10,000 (HL-60) or 2,000 cells/well (HCT116 and A549) in 96-well plates (TPP) for 24 h/37°C prior to the addition of examined agents. The non-cancerous cells, 3T3 and H9c2 cells, were cultured for 24 h/37°C in 96-well plates at a density of 10,000 cells/well, the medium was then changed to serum- and pyruvate-free DMEM (Sigma-Aldrich) and incubated with the cells for another 24 h/37°C. The cytotoxic effects of Bp4eT and its metabolites were studied at different concentrations after a 72 h/37°C incubation. In order to aid the dissolution of the lipophilic ligands, 0.1% dimethyl sulfoxide (v/v) (DMSO; Sigma-Aldrich) was present in the culture medium of all groups. At this concentration, DMSO had no effect on cellular proliferation or viability.
The viability of cells were determined using an MTT assay (Sigma-Aldrich) according to previously established methods. The optical density of soluble MTT was measured at λ = 570 nm, subtracting the λ = 690 nm background using a Tecan Infinite 200M plate reader (Tecan Group, Männedorf, Switzerland). The viability or proliferation of experimental groups was expressed as a percentage of the untreated controls (100%).
SigmaStat for Windows 3.5 (Systat Software, San Jose, CA, USA) statistical software package was utilized to analyze results. The data are expressed as the mean ± SD of a given number of experiments. Statistical significance was determined using a one-way ANOVA with a Bonferroni post-hoc test or Student’s t-test. The results were considered to be statistically significant when p < 0.05. The IC50 values were calculated using CalcuSyn 2.0 software (Biosoft, Cambridge, UK). Cell cycle analysis was evaluated using MultiCycle AV Software (Phoenix Flow Systems, San Diego, CA, USA).

[2] = Ascorbate oxidation assay (redox activity of iron complexes); assay type: biochemical;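 on %Fe 30min (ascorbate oxidation, Fe 100%), průměr: IBE 3 means excess free chelator over iron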;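 on %Fe 30min (ascorbate oxidation, Fe 100%): IBE 3 means excess free chelator over iron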;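 on %Fe 30min (ascorbate oxidation, Fe = 100%), průměr (mean): IBE 1 means iron-binding equivalents giving fully coordinated iron-chelator complexes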;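 on %Fe 30min (ascorbate oxidation, Fe = 100%), single replicates: IBE 1 means iron-binding equivalents giving fully coordinated iron-chelator complexes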;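 on %Fe 30min: ascorbate oxidation as % of the Fe control (Fe 100%): IBE 0.1 means iron-binding equivalents with iron in excess over chelator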;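 on Change of absorbance, odečet 0 (time 0 subtracted), čas 10, průměr: IBE 3 means excess free chelator over 10 µM FeCl3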;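 on Change of absorbance, odečet 0 (time 0 subtracted), čas 10: IBE 3 means excess free chelator over 10 µM FeCl3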;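 on Change of absorbance, odečet 0 (time 0 subtracted), čas 20, průměr: 100 µM ascorbate with 10 µM FeCl3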;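 on Change of absorbance, odečet 0 (time 0 subtracted), čas 20: 100 µM ascorbate with 10 µM FeCl3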;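 on Change of absorbance, odečet 0 (time 0 subtracted), čas 30, průměr: 100 µM ascorbate with 10 µM FeCl3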;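 on Change of absorbance, odečet 0 (time 0 subtracted), čas 30: 100 µM ascorbate with 10 µM FeCl3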;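 on odečet 0 (reading minus time 0 reading) at čas 20, single replicates: IBE 1 means fully coordinated iron chelator complexes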;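 on odečet 0 (reading minus time 0 reading) at čas 30, průměr (mean): IBE 1 means fully coordinated iron chelator complexes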;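 on odečet 0 (reading minus time 0 reading) at čas 30, single replicates: IBE 1 means fully coordinated iron chelator complexes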;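 on raw reading at čas 20 (time 20), průměr (mean): IBE 1 means fully coordinated iron chelator complexes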;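 on raw reading at čas 20 (time 20), single replicates: IBE 1 means fully coordinated iron chelator complexes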;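 on raw reading at čas 30 (time 30), průměr (mean): IBE 1 means fully coordinated iron chelator complexes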;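 on raw reading at čas 30 (time 30), single replicates: IBE 1 means fully coordinated iron chelator complexes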
[3] = sheet IBE 1, time 10, replicates
[4] = sheet IBE 1, time 20, replicates
[5] = sheet IBE 1, time 30, replicates

For `CCNC(=S)NN=C(c1ccccc1)c1ccccn1` [Bp4eT, 2-benzoylpyridine 4-ethyl-3-thiosemicarbazone], the “MTT, relative to control (0 = 100)” value ([1]; 100 nM) was 33.1607 and 22.627 and 26.6274 and 27.398 and 25.6334, the IC50 ([1]; MTT, read-out: IC50 měřené) was 16.3 nM and 16.2 nM and 11.2 nM and the “%Fe 30min: ascorbate oxidation as % of the Fe control (Fe 100%)” value ([2]; IBE 0.1, 30 min, mean (průměr)) was 114.3%. For the same molecule, the “Change of absorbance after subtraction of time 0 (odečet 0)” value (“Change of absorbance … (odečet 0)” below) ([2]; IBE 0.1, time 10, mean (průměr)) was -0.04348, the “Change of absorbance … (odečet 0)” value ([2]; IBE 0.1, time 20, mean (průměr)) was -0.0765 and the “Change of absorbance … (odečet 0)” value ([2]; IBE 0.1, time 30, mean (průměr)) was -0.108. The “Absorbance (ascorbate, λ = 265 nm)” value ([2]; IBE 0.1, čas 0 (time 0), mean (průměr)) was 0.839, the “Absorbance (ascorbate, λ = 265 nm)” value ([2]; IBE 0.1, čas 10 (time 10), mean (průměr)) was 0.7956 and the “Absorbance (ascorbate, λ = 265 nm)” value ([2]; IBE 0.1, čas 20 (time 20), mean (průměr)) was 0.7625. The “Absorbance (ascorbate, λ = 265 nm)” value ([2]; IBE 0.1, čas 30 (time 30), mean (průměr)) was 0.731, the “Ascorbate oxidation, % of the control” value ([2]; IBE 1) was “significant (p < 0.001) increase” and the “Ascorbate oxidation, % of the control” value ([2]; IBE 3) was “significant (p < 0.001) increase”. The “%Fe 30min (ascorbate oxidation, Fe = 100%), průměr (mean)” value ([2]; sheet IBE 1, 30min, Fe 100%, mean) was 274.4%, the “%Fe 30min (ascorbate oxidation, Fe = 100%), single replicates” value ([2]; sheet IBE 1, 30min, Fe 100%, replicates) was 326.6% and 305.9% and 307.7% and 264.1% and 243.3% and 218.6% and 291.9% and 257% and 254.6% and the “raw reading at čas 0 (time 0), průměr (mean)” value ([2]; sheet IBE 1, time 0, mean of 9 readings) was 0.8081. The “raw reading at čas 0 (time 0), single replicates” value ([2]; sheet IBE 1, time 0, replicates of 2014-03-24 (two runs) and 2014-03-25) was 0.8198 and 0.8003 and 0.8337 and 0.8268 and 0.8308 and 0.7872 and 0.7839 and 0.7637 and 0.8272, the “odečet 0 (reading minus time 0 reading) at čas 10, průměr (mean)” value ([2]; sheet IBE 1, time 10, mean) was -0.1075 and the “raw reading at čas 10 (time 10), průměr (mean)” value ([2]; sheet IBE 1, time 10, mean of 9 readings) was 0.7006. For the same molecule, the “odečet 0 (reading minus time 0 reading) at čas 10, single replicates” value [2, 3] was -0.1527 and -0.1456 and -0.1532 and -0.1025 and -0.07863 and -0.05463 and -0.1235 and -0.07821 and -0.07861, the “raw reading at čas 10 (time 10), single replicates” value [2, 3] was 0.681 and 0.6812 and 0.6776 and 0.6847 and 0.7053 and 0.7091 and 0.7037 and 0.7416 and 0.7217 and the “odečet 0 (reading minus time 0 reading) at čas 20, průměr (mean)” value ([2]; sheet IBE 1, time 20, mean) was -0.1811. For the same molecule, the “raw reading at čas 20 (time 20), průměr (mean)” value ([2]; sheet IBE 1, time 20, mean of 9 readings) was 0.627, the “odečet 0 (reading minus time 0 reading) at čas 20, single replicates” value [2, 4] was -0.2337 and -0.2156 and -0.2203 and -0.1671 and -0.1458 and -0.1256 and -0.1987 and -0.1601 and -0.163 and the “raw reading at čas 20 (time 20), single replicates” value [2, 4] was 0.6 and 0.6112 and 0.6105 and 0.6201 and 0.6381 (2×) and 0.6284 and 0.6597 and 0.6373. The “odečet 0 (reading minus time 0 reading) at čas 30, průměr (mean)” value ([2]; sheet IBE 1, time 30, mean) was -0.2442, the “raw reading at čas 30 (time 30), průměr (mean)” value ([2]; sheet IBE 1, time 30, mean of 9 readings) was 0.5639 and the “odečet 0 (reading minus time 0 reading) at čas 30, single replicates” value [2, 5] was -0.2822 and -0.2643 and -0.2658 and -0.2282 and -0.2102 and -0.1888 and -0.2754 and -0.2425 and -0.2402. The “raw reading at čas 30 (time 30), single replicates” value [2, 5] was 0.5515 and 0.5624 and 0.5649 and 0.5591 and 0.5737 and 0.5749 and 0.5518 and 0.5772 and 0.56, the “%Fe 30min (ascorbate oxidation, Fe 100%), průměr” value ([2]; sheet IBE 3, 30min, Fe alone = 100%, mean (průměr) of the 9 replicates) was 278.6% and the “%Fe 30min (ascorbate oxidation, Fe 100%)” value ([2]; sheet IBE 3, 30min, Fe alone = 100%, single replicates) was 323.8% and 304.1% and 296.1% and 279.4% and 257.4% and 253.6% and 291.2% and 261% and 240.7%. The “Change of absorbance, odečet 0 (time 0 subtracted), čas 10, průměr” value ([2]; sheet IBE 3, time 10 minus time 0, mean (průměr)) was -0.09469, the “Change of absorbance, odečet 0 (time 0 subtracted), čas 10” value ([2]; sheet IBE 3, time 10 minus time 0, single replicates) was -0.1148 and -0.1115 and -0.1009 and -0.09722 and -0.09232 and -0.09642 and -0.1047 and -0.06955 and -0.06465 and the “Change of absorbance, odečet 0 (time 0 subtracted), čas 20, průměr” value ([2]; sheet IBE 3, time 20 minus time 0, mean (průměr)) was -0.1775. For the same molecule, the “Change of absorbance, odečet 0 (time 0 subtracted), čas 20” value ([2]; sheet IBE 3, time 20 minus time 0, single replicates) was -0.2173 and -0.2064 and -0.1913 and -0.1735 and -0.1668 and -0.1578 and -0.1895 and -0.1498 and -0.1449, the “Change of absorbance, odečet 0 (time 0 subtracted), čas 30, průměr” value ([2]; sheet IBE 3, time 30 minus time 0, mean (průměr)) was -0.2575 and the “Change of absorbance, odečet 0 (time 0 subtracted), čas 30” value ([2]; sheet IBE 3, time 30 minus time 0, single replicates) was -0.3006 and -0.2823 and -0.2749 and -0.2593 and -0.2389 (2×) and -0.2354 and -0.2666 and -0.2203.
